Values quoted from earlier work as cited in patent US20200108015A1, “Sustained Release Nitric Oxide in Intestinal Tract” (SKLAR PHARMA LLC, priority 2018, published 2020).
Read-outs that look alike come from different tables or passages of the source.

Compound | half life (in vivo) | half life (in the blood stream)
NC(=O)NO [Hydroxyurea, hydroxyurea] | two | –
CC(=O)Oc1ccccc1C(=O)O [aspirin] | – | about 30 minutes
